The values below come from the SangsterLogP compilation.

The logP is the decadic logarithm of the partition coefficient of the neutral form, usually between octanol and water. A high value points to higher lipophilicity. For the compound `O=C(O)CCCCCO/N=C(/c1ccccc1)c1ccncn1`, the logP turned out to be 0.08.
Turning to `O=C(O)CCCCCO/N=C(\c1cncnc1)c1cccc(C(F)(F)F)c1`, the logP came out at 1.07.
`O=C(O)CCCCO/N=C(\c1cccc(C(F)(F)F)c1)c1cnccn1` came in with a logP of 1.08.
Turning to `O=C(O)CCCCCO/N=C(/c1cccc(C(F)(F)F)c1)c1ncccn1`, the logP turned out to be 1.94.
In turn, `O=C(O)CCCCON=C(c1cccc(C(F)(F)F)c1)c1ccncn1` came in with a logP of 1.74.
As for `O=C(O)CCCCO/N=C(\c1ccccc1)c1ncccn1`, the logP worked out at 0.5.
On to `O=C(O)CCCCCON=C(c1ccccc1)c1ncccn1`, for which the logP is 1.07.
For the compound `O=C(O)CCCCO/N=C(\c1cncnc1)c1cccc(C(F)(F)F)c1`, the logP stood at 0.63.
Compound `O=C(O)CCCO/N=C(\c1ccccc1)c1ncccn1` displayed a lipophilicity (logP) of 0.36.
`O=C(O)CCCO/N=C(\c1ccccc1)c1ccncn1`: the logP was -0.47.
Next, `O=C(O)CCCCO/N=C(\c1ccccc1)c1ccncn1`: -0.19; `O=C(O)CCCCO/N=C(/c1ccnnc1)c1cccc(C(F)(F)F)c1`: 1.81; `O=C(O)CCCCCO/N=C(/c1ccnnc1)c1cccc(C(F)(F)F)c1`: 2.27.
In turn, `O=C(O)CCCCCO/N=C(\c1cccc(C(F)(F)F)c1)c1cccnn1` had a logP of 2.19.
For `O=C(O)CCCCCO/N=C(\c1cccc(C(F)(F)F)c1)c1cnccn1` the value was 2.56.
`O=C(O)CCCCCO/N=C(\c1cccc(C(F)(F)F)c1)c1ccncn1` yielded a logP of 2.49.
`O=C(O)CCCCO/N=C(\c1cccc(C(F)(F)F)c1)c1ncccn1` came in with a logP of 1.53.
`O=C(O)CCCO/N=C(/c1ccccc1)c1cncnc1` registered a logP of -0.38.
For `O=C(O)CCCCO/N=C(\c1ccccc1)c1cncnc1` the value was -0.21.
